What was measured:
L. amazonensis = experiment: Murine model of cutaneous leishmaniasis induced by L. amazonensis (efficacy); format: in vivo, BALB/c mice; details: 30 μmol per kg per day × 28 days
Method: So, BALB/c mice infected with L. amazonensis were treated during 28 days with compound 10e (30 μmol per kg per day, i.p.) or with the standards miltefosine (30 μmol per kg per day, p.o.) and meglumine antimoniate (30 μmol per kg per day, i.p.).
This study (protocol number 2013.02) was approved by the Ethics Committee for Animal Experimentation of the Federal University of Alagoas (Brazil). All animals received humane care in compliance with the ‘Principles of laboratory animal care’ formulated by the National Society for Medical Research and the ‘Guide for the care and use of laboratory animals’ prepared by the National Academy of Sciences (Washington, DC). Then, 1 × 10^5 stationary promastigotes (5 days of culture in Schneider's medium) of L. amazonensis were inoculated subcutaneously into the right ear dermis of 6 week-old female BALB/c mice weighing ca. 20 g. and later treated with 10e (i.p.), miltefosine (p.o.) or meglumine antimoniate (i.p.) at 30 μmol kg^−1 × 28 days. The vehicle to solubilize 10e (LASSBio-1736) and standard drugs was Tween 20 (50 μL) and sterile water for injection, which was also administrated by i.p. route in two controls groups (non-infected control and infected control). The lesion size was measured using a paquimeter.[32] The parasite loads of infected ears and draining lymph nodes were determined using a quantitative limiting-dilution assay.[33] Toxicity was also evaluated due to alterations on spleen weight and by biochemistry dosages in plasma, performed according to the manufacturer's instructions (Doles, BRA). Data obtained from experiments were expressed as the mean ± S.E.M. and statistical differences between the treated and the vehicle groups of experiments were evaluated by ANOVA and Dunnett hoc tests.

[1] = tested on: L. braziliensis intracellular amastigotes; experiment: Leishmanicidal activity against intracellular amastigote forms of L. braziliensis in J774.A1 macrophages; format: cell-based; details: Leishmania braziliensis
From the text: Further, the leishmanicidal activity against intracellular amastigotes forms of L. braziliensis were also investigated (Table 2).
Promastigotes of L. amazonensis (MHOM/BR/77/LTB0016) were obtained from Dr Eduardo Caio Torres dos Santos at Oswaldo Cruz Institute – Fiocruz. Promastigotes of L. braziliensis (MHOM/BR/01/BA788) were obtained from Dr Valéria de Matos Borges at Gonçalo Moniz Research Center – Fiocruz. The parasites were maintained in vitro in Schneider's medium, supplemented with 10% FBS and 2% human urine at 27 °C in BOD incubator.
Initially, compounds 9a–e and 10a–e were evaluated at screening concentration of 30 μM against L. amazonensis, using DMSO 0.03% as vehicle control, since this was the DMSO concentration (vehicle) remaining in each well with the tested compounds. […] Vehicle control used was DMSO 0.1%, since this was the concentration of DMSO (vehicle) existing in each well with the tested substances in the highest concentration used.
To assess the activity of the test derivatives against the amastigote stage of L. amazonensis and L. braziliensis the model of infection in coverglass was realized.[31] The murine macrophages (J774.A1 cell line) were prepared in 24-well cell culture plate (flat bottom, clear, Corning) at 2 × 10^5 adherent cells per well, infected with 2 × 10^6 promastigotes in glass coverslips placed inside 1 mL medium culture. The cultures were cultured or not with the test derivatives or reference drugs, and kept for 24 h at 37 °C, 5% CO2. After 24 h of incubation, the coverslips were washed, stained with Giemsa–May–Grünwald, and intracellular amastigotes were counted in 100 macrophages, using an optical microscope, on the objective of 100×. Thus, during the counting of 100 macrophages, the amount of amastigotes present within these defence cells was also determined. Data obtained from in vitro experiments were expressed as the mean ± S.E.M. of duplicate cultures of representative assays. Statistical differences between the treated and the control groups were evaluated by ANOVA and Dunnett hoc tests. Differences with a p value < 0.05 or lower were considered significant.

O=C(N/N=C/c1ccc(C(F)(F)F)cc1)NNC(=O)c1ccc(Cl)cc1Cl [LASSBio-1736 (10e), 2,4-dichloro-phenylcarbamoyl-N-4-trifluoromethylphenylimine-urea]
Appearance of lesions on the first day after end of treatment (photographs) (L. amazonensis): complete healing of the nodules and ulcers
Lesion sizes of infected ear (L. amazonensis; 10e and meglumine antimoniate i.p., miltefosine p.o.): reduced the lesion sizes of infected ear like miltefosine
L. amazonensis titer in draining lymph node (L. amazonensis; limiting-dilution assay): not reduced the L. amazonensis titer in draining lymph node
Parasite load in infected ear (L. amazonensis; limiting-dilution assay): decreased parasite load in infected ear
IC50 ([1]; J774.A1, 24 h, read-out: IC50 (concentration required to give 50% death of parasites)): 5.3 ± 2.6 µM
Emax ([1]; J774.A1, L. braziliensis intracellular amastigotes, maximum toxicity vs 0.1% DMSO group, read-out: Maximum effect (% ± S.E.M.)): 57.2 ± 5.2%
